Results reported in patent publication US20230407243A1, “GENETIC PLATFORM TO INVESTIGATE THE FUNCTIONS OF BACTERIAL DRUG EFFLUX PUMPS” (priority 2022, published 2023).
Like-named read-outs stand apart in the source and are kept apart here.

What was measured:
Format in all cases: cell-based, Escherichia coli
[1] = test system: EKO-35 strains producing different efflux pumps (EKO-35 araC::X); assay: Checkerboard synergy (FICI) of PAβN or NMP with antibiotics
Procedure: (§1) Synergy measurement using checkerboard analysis was performed in 96-well microtiter plates using the microdilution broth method, according to CLSI guidelines (Patel J. B., 2015). The cell inocula were prepared using the colony resuspension method. The minimum inhibitory concentrations (MICs) were defined as the lowest concentration that provided no growth, as determined by measurement of the OD600nm using a Synergy H1 microplate reader (BioTek). Susceptibility testing was performed in MHB II with a final volume of 100 μL. PAI3N (Bachem Americas) was solubilized in MHB II. […] Solvent controls were included in each plate.
(§2) The Fractional Inhibitory Concentration Index (FICI) was used to assess the synergy of PAI3N in combination with different antibiotics. The FICI represents the ΣFIC of each drug. The FICI for each drug was calculated using the following formula: FICI=FICA+FICB=(CA/MICA)+(CB/MICB). Where MICA and MICB are the MICs of drugs A (PAI3N/NMP) and B (antibiotic) alone, and CA and CB are the MICs of the drugs in combination. The effects of PAβN or NMP in combination with antibiotics were classified as: synergistic (FICI<0.5), additive (FICI>0.5-1.0), indifferent (FICI>1.0-2.0), and antagonistic (FICI>2.0). Fold increases in resistance provided by efflux pumps were calculated by dividing the MIC values of strains expressing efflux pumps by the MIC value of EKO-35.

[2] = test system: EKO-35 porinated strain expressing acrB; assay: Checkerboard synergy (FICI), porinated strain
How it was run: (§3)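 Interaction of PAβN or NMP with antibiotics is scored as FICI = CA/MICA + CB/MICB, from MICs (no growth, OD600) in MHB II checkerboard microdilution following CLSI. Solvent controls accompany every plate.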

[3] = test system: EKO-35-Pore acrBD408A (functionally inactive AcrB variant); assay: Checkerboard synergy (FICI), porinated strain
How it was run: as §3

wild-type E. coli K-12 = test system: wild-type E. coli K-12
Procedure: as §1, §2

EKO-35 = test system: EKO-35
Procedure: as §1, §2

ΔtolC-Pore = test system: ΔtolC-Pore
Procedure: as §1, §2

EKO-35 acrBD408A = test system: EKO-35 acrBD408A
Procedure: as §1, §2

ΔtolC = test system: ΔtolC
Procedure: as §1, §2

[4] = EKO-35 mdtEF, PAβN + antibiotic
[5] = strain EKO-35 acrB, NMP + antibiotic
[6] = strain EKO-35 acrEF, NMP + antibiotic
[7] = strain EKO-35 mdtEF, NMP + antibiotic
[8] = EKO-35 acrB Pore, NMP + antibiotic
[9] = EKO-35 acrB Pore, PAβN + antibiotic
[10] = strain EKO-35 acrB Pore, NMP + antibiotic
[11] = EKO-35 acrBD408A Pore, NMP + antibiotic
[12] = EKO-35 acrBD408A Pore, PAβN + antibiotic
[13] = strain EKO-35 acrBD408A Pore, NMP + antibiotic
[14] = strain ΔtolC Pore, NMP + antibiotic
[15] = EKO-35 acrBD408A, NMP + antibiotic
[16] = EKO-35 acrBD408A, PAβN + antibiotic
[17] = strain EKO-35 acrBD408A, NMP + antibiotic

For `CC[C@H]1OC(=O)[C@H](C)[C@@H](O[C@H]2C[C@@](C)(OC)[C@@H](O)[C@H](C)O2)[C@H](C)[C@@H](O[C@@H]2O[C@H](C)C[C@H](N(C)C)[C@H]2O)[C@](C)(O)C[C@@H](C)C(=O)[C@H](C)[C@@H](O)[C@]1(C)O` [erythromycin], the Effect ([1]; EKO-35 acrB, NMP + antibiotic) was “Additive”, the FICI ([1]; EKO-35 acrB, NMP + antibiotic) was 0.531 and the Effect ([1]; EKO-35 acrB, PAβN + antibiotic) was “Synergistic”. For the same molecule, the FICI ([1]; EKO-35 acrB, PAβN + antibiotic) was 0.078, the “MICb Alone” value ([1]; EKO-35 acrB, antibiotic alone (PAβN checkerboard)) was 64 µg/mL and the “MICb Combined” value ([1]; EKO-35 acrB, antibiotic in combination with PAβN) was 1 µg/mL. The FICI ([1]; EKO-35 acrEF, NMP + antibiotic) was 2.000, the Effect ([1]; EKO-35 acrEF, PAβN + antibiotic) was “Synergistic” and the “MICb Alone” value ([1]; EKO-35 acrEF, antibiotic alone (PAβN checkerboard)) was 8 µg/mL. For the same molecule, the “MICb Combined” value ([1]; EKO-35 acrEF, antibiotic in combination with PAβN) was 0.5 µg/mL, the Effect ([1]; EKO-35 mdtEF, NMP + antibiotic) was “Synergistic” and the FICI ([1]; EKO-35 mdtEF, NMP + antibiotic) was 0.250. For the same molecule, the Effect [1, 4] was “Synergistic”, the FICI [1, 4] was 0.094 and the “MICb Alone” value ([1]; EKO-35 mdtEF, antibiotic alone (PAβN checkerboard)) was 16 µg/mL. For the same molecule, the “MICb Combined” value ([1]; EKO-35 mdtEF, antibiotic in combination with PAβN) was 0.5 µg/mL, the Effect ([1]; EKO-35 mexCD, NMP + antibiotic) was “Synergistic” and the Effect ([1]; EKO-35 mexCD, PAβN + antibiotic) was “Synergistic”. For the same molecule, the “MICb Alone” value ([1]; EKO-35 mexCD, antibiotic alone (PAβN checkerboard)) was 8 µg/mL, the “MICb Combined” value ([1]; EKO-35 mexCD, antibiotic in combination with PAβN) was 0.5 µg/mL and the Effect [1, 5] was “Additive (additive (FICI >0.5-1.0))”. For the same molecule, the FICI [1, 5] was 0.531, the “MICb Combined” value ([1]; strain EKO-35 acrB, antibiotic in combination with NMP) was 64 µg/mL and the Effect [1, 6] was “— (indifferent (FICI >1.0))”. For the same molecule, the FICI [1, 6] was 2.000, the “MICb Alone” value ([1]; strain EKO-35 acrEF, antibiotic alone) was 8 µg/mL and the “MICb Combined” value ([1]; strain EKO-35 acrEF, antibiotic in combination with NMP) was 8 µg/mL. For the same molecule, the Effect [1, 7] was “Synergistic (Synergy (FICI ≤0.5))”, the FICI [1, 7] was 0.250 and the “MICb Alone” value ([1]; strain EKO-35 mdtEF, antibiotic alone) was 64 µg/mL. For the same molecule, the “MICb Combined” value ([1]; strain EKO-35 mdtEF, antibiotic in combination with NMP) was 8 µg/mL, the Effect ([1]; strain EKO-35 mexCD, NMP + antibiotic) was “Synergistic (Synergy (FICI ≤0.5))” and the “MICb Alone” value ([1]; strain EKO-35 mexCD, antibiotic alone) was 16 µg/mL. The “MICb Combined” value ([1]; strain EKO-35 mexCD, antibiotic in combination with NMP) was 2 µg/mL, the Effect [2, 8] was “Additive” and the FICI [2, 8] was 0.563. For the same molecule, the Effect [2, 9] was “Synergistic”, the FICI [2, 9] was 0.078 and the “MICb Alone” value ([2]; EKO-35 acrB Pore, antibiotic alone (PAβN checkerboard)) was 32 µg/mL. For the same molecule, the “MICb Combined” value ([2]; EKO-35 acrB Pore, antibiotic in combination with PAβN) was 0.5 µg/mL, the Effect [2, 10] was “Additive (additive (FICI >0.5-1.0))” and the FICI [2, 10] was 0.563. The “MICb Alone” value ([2]; strain EKO-35 acrB Pore, antibiotic alone) was 8 µg/mL, the “MICb Combined” value ([2]; strain EKO-35 acrB Pore, antibiotic in combination with NMP) was 0.5 µg/mL and the Effect [3, 11] was “Additive”. For the same molecule, the FICI [3, 11] was 0.735, the Effect [3, 12] was “Additive” and the FICI [3, 12] was 0.735. The “MICb Alone” value ([3]; EKO-35 acrBD408A Pore, antibiotic alone (PAβN checkerboard)) was 0.13 µg/mL, the “MICb Combined” value ([3]; EKO-35 acrBD408A Pore, antibiotic in combination with PAβN) was 0.063 µg/mL and the Effect [3, 13] was “Additive (additive (FICI >0.5-1.0))”. For the same molecule, the FICI [3, 13] was 0.735, the “MICb Alone” value ([3]; strain EKO-35 acrBD408A Pore, antibiotic alone) was 0.13 µg/mL and the “MICb Combined” value ([3]; strain EKO-35 acrBD408A Pore, antibiotic in combination with NMP) was 0.063 µg/mL. The Effect (wild-type E. coli K-12; K-12, NMP + antibiotic) was “Additive”, the FICI (wild-type E. coli K-12; K-12, NMP + antibiotic) was 0.625 and the Effect (wild-type E. coli K-12; K-12, PAβN + antibiotic) was “Synergistic”. The FICI (wild-type E. coli K-12; K-12, PAβN + antibiotic) was 0.094, the “MICb Alone” value (wild-type E. coli K-12; K-12, antibiotic alone (PAβN checkerboard)) was 64 µg/mL and the “MICb Combined” value (wild-type E. coli K-12; K-12, antibiotic in combination with PAβN) was 2 µg/mL. The Effect (wild-type E. coli K-12; strain K-12, NMP + antibiotic) was “Additive (additive (FICI >0.5-1.0))”, the FICI (wild-type E. coli K-12; strain K-12, NMP + antibiotic) was 0.625 and the “MICb Combined” value (wild-type E. coli K-12; strain K-12, antibiotic in combination with NMP) was 16 µg/mL. The Effect (EKO-35; EKO-35, NMP + antibiotic) was “Synergistic”, the Effect (EKO-35; EKO-35, PAβN + antibiotic) was “Synergistic” and the FICI (EKO-35; EKO-35, PAβN + antibiotic) was 0.093. The “MICb Alone” value (EKO-35; EKO-35, antibiotic alone (PAβN checkerboard)) was 2 µg/mL, the “MICb Combined” value (EKO-35; EKO-35, antibiotic in combination with PAβN) was 0.06 µg/mL and the “interaction of NMP in combination with the labelled antibiotic (FICI)” value (EKO-35; EKO-35 and EKO-35 acrBD408A) was “low-level synergy”. For the same molecule, the “interaction of PAβN in combination with the labelled antibiotic (FICI)” value (EKO-35; efflux-deficient strains EKO-35, EKO-35 acrBD408A, ΔtolC) was “synergized”, the Effect (EKO-35; strain EKO-35, NMP + antibiotic) was “Synergistic (Synergy (FICI ≤0.5))” and the “MICb Alone” value (EKO-35; strain EKO-35, antibiotic alone) was 2 µg/mL. The “MICb Combined” value (EKO-35; strain EKO-35, antibiotic in combination with NMP) was 0.25 µg/mL, the Effect (ΔtolC-Pore; [14]) was “Synergistic (Synergy (FICI ≤0.5))” and the FICI (ΔtolC-Pore; [14]) was 0.625. For the same molecule, the “MICb Alone” value (ΔtolC-Pore; strain ΔtolC Pore, antibiotic alone) was 4 µg/mL, the “MICb Combined” value (ΔtolC-Pore; strain ΔtolC Pore, antibiotic in combination with NMP) was 0.5 µg/mL and the Effect (ΔtolC-Pore; ΔtolC Pore, NMP + antibiotic) was “Synergistic”. The FICI (ΔtolC-Pore; ΔtolC Pore, NMP + antibiotic) was 0.625, the Effect (ΔtolC-Pore; ΔtolC Pore, PAβN + antibiotic) was “Synergistic” and the FICI (ΔtolC-Pore; ΔtolC Pore, PAβN + antibiotic) was 0.188. For the same molecule, the “MICb Alone” value (ΔtolC-Pore; ΔtolC Pore, antibiotic alone (PAβN checkerboard)) was 1 µg/mL, the “MICb Combined” value (ΔtolC-Pore; ΔtolC Pore, antibiotic in combination with PAβN) was 0.063 µg/mL and the Effect (EKO-35 acrBD408A; [15]) was “Synergistic”. The FICI (EKO-35 acrBD408A; [15]) was 0.500, the Effect (EKO-35 acrBD408A; [16]) was “Synergistic” and the FICI (EKO-35 acrBD408A; [16]) was 0.190. The “MICb Alone” value (EKO-35 acrBD408A; EKO-35 acrBD408A, antibiotic alone (PAβN checkerboard)) was 2 µg/mL, the “MICb Combined” value (EKO-35 acrBD408A; EKO-35 acrBD408A, antibiotic in combination with PAβN) was 0.13 µg/mL and the Effect (EKO-35 acrBD408A; [17]) was “Synergistic (Synergy (FICI ≤0.5))”. For the same molecule, the FICI (EKO-35 acrBD408A; [17]) was 0.500, the “MICb Alone” value (EKO-35 acrBD408A; strain EKO-35 acrBD408A, antibiotic alone) was 2 µg/mL and the “MICb Combined” value (EKO-35 acrBD408A; strain EKO-35 acrBD408A, antibiotic in combination with NMP) was 0.5 µg/mL. The Effect (ΔtolC; strain ΔtolC, NMP + antibiotic) was “— (indifferent (FICI >1.0))”, the FICI (ΔtolC; strain ΔtolC, NMP + antibiotic) was 1.000 and the “MICb Alone” value (ΔtolC; strain ΔtolC, antibiotic alone) was 4 µg/mL. The “MICb Combined” value (ΔtolC; strain ΔtolC, antibiotic in combination with NMP) was 2 µg/mL, the FICI (ΔtolC; ΔtolC, NMP + antibiotic) was 1.000 and the Effect (ΔtolC; ΔtolC, PAβN + antibiotic) was “Synergistic”. The FICI (ΔtolC; ΔtolC, PAβN + antibiotic) was 0.188, the “MICb Alone” value (ΔtolC; ΔtolC, antibiotic alone (PAβN checkerboard)) was 4 µg/mL and the “MICb Combined” value (ΔtolC; ΔtolC, antibiotic in combination with PAβN) was 0.25 µg/mL.
